Test [1] has as its target cap-dependent endonuclease (RNP fraction containing PB1•PB2•PA complex) (Influenza A virus, UniProt P15659). Kind of test: biochemical. The following applies: RNP from A/WSN/33 virus, capped Cy3/BHQ2 30mer RNA substrate, 60 minutes at room temperature; read-out: CEN IC50.
Test [2] has as its system influenza virus. Description: microbe, parasite or virus in culture. The class given is cell-based, influenza virus (MDBK or MDCK cells). The following applies: unidentified influenza virus, 72 h.
Setting [3] is: read-out: CPE EC50, effective concentration to achieve 50% CPE inhibition, 3 days incubation, WST-8.

Structures are written as SMILES. Where two headings read alike, the source gives them in different places.

For the molecule `COCCN1C[C@H](C(c2ccccc2)c2ccccc2)n2cc(C(=O)O)c(=O)c(O)c2C1=O` [Example 2], in test [1], the half-inhibitory concentration (IC50) was 48 nM. Also, the EC50 in test [2] (setting [3]) came out at 293 nM. For `CCN1C[C@H](C(c2ccccc2)c2ccccc2)n2cc(C(=O)O)c(=O)c(O)c2C1=O` [Example 14], the concentration for half-maximal inhibition (IC50) in test [1] was 43 nM. In addition, the EC50 in test [2] (setting [3]) stood at 313 nM.

Consider `O=C(O)c1cn2c(c(O)c1=O)C(=O)N(CC1CCCCO1)C[C@@H]2C(c1ccccc1)c1ccccc1` (stereo partly drawn) [Example 26], for which, in test [1], the concentration for half-maximal inhibition (IC50) came to 108 nM. Besides, in test [2] (setting [3]), the EC50 amounted to 547 nM. For `O=C1c2c(O)c(=O)ccn2[C@@H](C(c2ccccc2)c2ccccc2)CN1Cc1ccccc1` [Example 37], the IC50 in test [1] stood at 101 nM. The EC50 in test [2] (setting [3]) was 318 nM. For `COCCN1C[C@H](C(c2ccccc2)c2ccccc2)n2cc(CO)c(=O)c(O)c2C1=O` [Example 48], the half-maximal inhibitory concentration (IC50) in test [1] turned out to be 87 nM. For the molecule `COCCN1C[C@H](C(c2ccccc2)c2ccccc2)n2cc(N)c(=O)c(O)c2C1=O` [Example 56], in test [1], the IC50 was 358 nM.

In the case of `COCCN1C[C@H](C(c2ccccc2)c2ccccc2)n2cc(OC)c(=O)c(O)c2C1=O` [Example 62], the IC50 in test [1] amounted to 110 nM. Still for that read-out and setting: the value for `COCCN1CN(C(c2ccccc2)c2ccccc2)n2cc(C(=O)O)c(=O)c(O)c2C1=O` [Example 94] was 96 nM. Take `COCCN1CN(Cc2ccccc2-c2ccccc2)n2ccc(=O)c(O)c2C1=O` [Example 99]: in test [1], the IC50 is 341 nM. In the case of `O=C1c2c(O)c(=O)ccn2N(C2c3ccccc3CCc3ccccc32)CN1C1CC1` [Example 108], the IC50 in test [1] was 37 nM. For the same molecule, the EC50 in test [2] (setting [3]) is 19 nM. As for `CN(CCN1CN(C(c2ccccc2)c2ccccc2)n2ccc(=O)c(O)c2C1=O)S(=O)(=O)c1ccccc1` [Example 138], in test [1], the half-inhibitory concentration (IC50) worked out at 166 nM.

For the molecule `CN(CCN1CN(C(c2ccccc2)c2ccccc2)n2ccc(=O)c(O)c2C1=O)S(C)(=O)=O` [Example 139], in test [1], the IC50 is 189 nM. Moreover, in test [2] (setting [3]), the EC50 amounted to 741 nM. Turning to `O=C1c2c(O)c(=O)ccn2N(C(c2ccccc2)c2ccccc2)CN1CCNS(=O)(=O)c1ccccc1` [Example 143], the IC50 in test [1] amounted to 224 nM. In addition, the EC50 in test [2] (setting [3]) was determined as 333 nM. For the molecule `O=C(NCCN1CN(C(c2ccccc2)c2ccccc2)n2ccc(=O)c(O)c2C1=O)c1ccccc1` [Example 150], the IC50 in test [1] came to 193 nM. On to `O=C1c2c(O)c(=O)ccn2C(C(c2ccccc2)c2ccccc2)N2CCCCN12` (stereo not drawn) [Example 178], for which, in test [1], the IC50 came out at 61 nM. The EC50 in test [2] (setting [3]) was 75 nM. Taken in the same sequence, the figures for `O=C(O)c1cn2c(c(O)c1=O)C(=O)N(CCOc1ccc(F)cc1)C[C@@H]2C(c1ccccc1)c1ccccc1` [Example 183] were 74 nM and 2370 nM.

In the case of `O=C(O)c1cn2c(c(O)c1=O)C(=O)N(CC(F)(F)F)C[C@@H]2C(c1ccccc1)c1ccccc1` [Example 185], in test [1], the IC50 came to 132 nM. Moreover, in test [2] (setting [3]), the EC50 is 1920 nM.

On to `O=C1c2c(O)c(=O)ccn2N(Cc2csc3ccc(Cl)cc23)CN1Cc1ccc(F)cc1` [Example 191], for which, in test [1], the IC50 came to 238 nM. Moreover, the EC50 in test [2] (setting [3]) is 2820 nM.

For `CC(C)N1CN(Cc2cccc3ccsc23)n2ccc(=O)c(O)c2C1=O` [Example 204], the IC50 in test [1] was determined as 299 nM. Besides, in test [2] (setting [3]), the EC50 was 2360 nM.

With `O=C1c2c(O)c(=O)ccn2N(C(c2ccccc2)c2ccccc2)CN1C1CCOC1` (stereo not drawn) [Example 224], the concentration for half-maximal inhibition (IC50) in test [1] is 276 nM. Also, in test [2] (setting [3]), the EC50 came out at 119 nM. Consider `CN1CCC(N2CN(C(c3ccccc3)c3ccccc3)n3ccc(=O)c(O)c3C2=O)CC1` [Example 225], for which the IC50 in test [1] worked out at 283 nM. For the same molecule, the EC50 in test [2] (setting [3]) is 663 nM. With `CCC(COC)N1CN(C(c2ccccc2)c2ccccc2)n2ccc(=O)c(O)c2C1=O` (stereo not drawn) [Example 228], the concentration for half-maximal inhibition (IC50) in test [1] worked out at 243 nM. The EC50 in test [2] (setting [3]) was determined as 141 nM.

As for `CCOC(=O)CC(C)N1CN(C(c2ccccc2)c2ccccc2)n2ccc(=O)c(O)c2C1=O` (stereo not drawn) [Example 230], in test [1], the IC50 was determined as 282 nM. Besides, the EC50 in test [2] (setting [3]) is 525 nM. As to `CNC(=O)C(C)N1CN(C(c2ccccc2)c2ccccc2)n2ccc(=O)c(O)c2C1=O` (stereo not drawn) [Example 233], the half-inhibitory concentration (IC50) in test [1] was 228 nM. Besides, the EC50 in test [2] (setting [3]) came out at 2240 nM. Consider `CC(CC(=O)Nc1ccccc1)N1CN(C(c2ccccc2)c2ccccc2)n2ccc(=O)c(O)c2C1=O` (stereo not drawn) [Example 238], for which the half-maximal inhibitory concentration (IC50) in test [1] was 101 nM. In test [2] (setting [3]), the EC50 is 440 nM. For `CC(C)N1CN(C(c2ccccc2Cl)c2ccccc2Cl)n2ccc(=O)c(O)c2C1=O` [Example 240] the same measures were 37 nM and 48 nM. For `CC(N1CN(C(c2ccccc2)c2cccc(Cl)c2)n2ccc(=O)c(O)c2C1=O)C(F)(F)F` (stereo not drawn) [Example 241] the same measures were 197 nM and 63 nM.

For the molecule `CC(C)N1CN(C(c2cccs2)c2cccs2)n2ccc(=O)c(O)c2C1=O` [Example 244], the IC50 in test [1] is 249 nM. In addition, the EC50 in test [2] (setting [3]) stood at 108 nM.

In the case of `CC(C)N1CN(C2c3ccc(Cl)cc3CCc3cc(Cl)ccc32)n2ccc(=O)c(O)c2C1=O` [Example 246], in test [1], the half-inhibitory concentration (IC50) stood at 82 nM. Further, the EC50 in test [2] (setting [3]) is 26 nM. For `CN1CC[C@H](N2CN(C3c4ccccc4CCc4ccccc43)n3ccc(=O)c(O)c3C2=O)C1` [Example 247] the same measures were 282 nM and 2260 nM. With `COCC(COC)N1CN(C2c3ccccc3CCc3ccccc32)n2ccc(=O)c(O)c2C1=O` [Example 272], the half-maximal inhibitory concentration (IC50) in test [1] was 82 nM. Consider `O=C1c2c(O)c(=O)ccn2N(C2c3ccccc3CSc3ccccc32)CN1C1CCC(F)(F)CC1` (stereo not drawn) [Example 313], for which, in test [1], the half-inhibitory concentration (IC50) was determined as 189 nM.

On to `COCCN1CN(C2c3ccccc3CSc3c(F)cccc32)n2ccc(=O)c(O)c2C1=O` (stereo not drawn) [Example 336], for which the half-inhibitory concentration (IC50) in test [1] amounted to 51 nM.

For `COCC(COC)N1CN(C2c3ccccc3CSc3c(F)cccc32)n2ccc(=O)c(O)c2C1=O` (stereo not drawn) [Example 339], the IC50 in test [1] was determined as 183 nM.

For `CN1CN(C2c3ccccc3CSc3cc(Cl)ccc32)n2ccc(=O)c(O)c2C1=O` (stereo not drawn) [Example 348], the half-maximal inhibitory concentration (IC50) in test [1] stood at 54 nM. Take `CC(C)N1CN(C2c3ccccc3CSc3cc(F)ccc32)n2ccc(=O)c(O)c2C1=O` (stereo not drawn) [Example 352]: the IC50 in test [1] stood at 67 nM. As to `Cc1cccc2c1SCc1ccccc1C2N1CN(C(C)C)C(=O)c2c(O)c(=O)ccn21` (stereo not drawn) [Example 356], the IC50 in test [1] came to 66 nM. On to `COCCN1CN(C2c3ccccc3COc3c(Cl)cccc32)n2ccc(=O)c(O)c2C1=O` (stereo not drawn) [Example 396], for which the IC50 in test [1] was found to be 56 nM.

As for `C[C@@H](N1CN([C@@H]2c3ccccc3SCc3c(Cl)cccc32)n2ccc(=O)c(O)c2C1=O)C(F)(F)F` [Example 417], the IC50 in test [1] stood at 30 nM.

`C[C@@H](N1CN([C@H]2c3ccc(F)cc3CSc3ccccc32)n2ccc(=O)c(O)c2C1=O)C(F)(F)F` [Example 454]: the half-inhibitory concentration (IC50) in test [1] was determined as 12 nM. Regarding `C[C@@H](N1CN([C@@H]2c3ccccc3SCc3c(Br)cccc32)n2ccc(=O)c(O)c2C1=O)C(F)(F)F` [Example 463], the IC50 in test [1] turned out to be 12 nM.

Regarding `C[C@@H](N1CN([C@H]2c3cccc(F)c3CSc3c(F)cccc32)n2ccc(=O)c(O)c2C1=O)C(F)(F)F` [Example 469], the IC50 in test [1] turned out to be 16 nM. On to `C[C@@H](N1CN([C@H]2c3ccc(F)cc3CSc3c(F)cccc32)n2ccc(=O)c(O)c2C1=O)C(F)(F)F` [Example 470], for which the IC50 in test [1] is 8 nM. With `CC(C)N1CN(C2c3ccccc3CSc3ccccc32)n2cc(C(=O)O)c(=O)c(O)c2C1=O` (stereo not drawn) [Example 492], in test [2] (setting [3]), the EC50 turned out to be 160 nM. As to `CCN1C(=O)c2c(O)c(=O)ccn2C(C2c3ccccc3CSc3ccccc32)N1CC` (stereo not drawn) [Example 502], the EC50 in test [2] (setting [3]) amounted to 142 nM.

With `O=C(O)c1cn2c(c(O)c1=O)C(=O)N1CCCCN1C2C(c1ccccc1)c1ccccc1` (stereo not drawn) [Example 507], the EC50 in test [2] (setting [3]) was found to be 197 nM. Consider `CSCC1N(C(C)C)C(=O)c2c(O)c(=O)ccn2N1C1c2ccccc2CCc2ccccc21` (stereo not drawn) [Example 514], for which, in test [2] (setting [3]), the EC50 was determined as 18 nM.

For `CCCC1N(C(C)C)C(=O)c2c(O)c(=O)ccn2N1C1c2ccccc2CCc2ccccc21` (stereo not drawn) [Example 518], the EC50 in test [2] (setting [3]) was 24 nM. `COCCCC1N(C(C)C)C(=O)c2c(O)c(=O)ccn2N1C1c2ccccc2CCc2ccccc21` (stereo not drawn) [Example 522]: the EC50 in test [2] (setting [3]) came out at 14 nM. For the molecule `COCCCC1N(C(C)C)C(=O)c2c(O)c(=O)ccn2N1C1c2cccc(F)c2CCc2c(F)cccc21` (stereo not drawn) [Example 523], in test [2] (read-out: CPE EC50), the EC50 was 14 nM. In the case of `CC(=O)N(C)CC1N(C(C)C)C(=O)c2c(O)c(=O)ccn2N1C1c2ccccc2CCc2ccccc21` (stereo not drawn) [Example 525], the half-maximal inhibitory concentration (IC50) in test [1] was 141 nM. `COCCCC1N(C(C)C)C(=O)c2c(O)c(=O)ccn2N1C1c2ccc(F)cc2CCc2cc(F)ccc21` (stereo not drawn) [Example 526]: the EC50 in test [2] (setting [3]) is 19 nM. On to `CC(C)N1C(=O)c2c(O)c(=O)ccn2N(C2c3ccccc3CCc3ccccc32)C1CCN` (stereo not drawn) [Example 533], for which, in test [2] (setting [3]), the EC50 came out at 391 nM. In the case of `CC(C)N1C(=O)c2c(O)c(=O)ccn2N(C2c3ccccc3CCc3ccccc32)C1CCCN` (stereo not drawn) [Example 534], the EC50 in test [2] (setting [3]) is 1200 nM. For the molecule `CC(C)N1C(=O)c2c(O)c(=O)ccn2N(C2c3ccccc3CCc3ccccc32)C1CCN(C)C` (stereo not drawn) [Example 537], in test [2] (setting [3]), the EC50 came to 22 nM.

On to `CCN(CC)CC1N(CCO)C(=O)c2c(O)c(=O)ccn2N1C1c2ccccc2CCc2ccccc21` (stereo not drawn) [Example 550], for which, in test [2] (setting [3]), the EC50 worked out at 42 nM.

Consider `CN(C)CC1N(CCO)C(=O)c2c(O)c(=O)ccn2N1C1c2ccccc2CCc2ccccc21` (stereo not drawn) [Example 551], for which the EC50 in test [2] (setting [3]) worked out at 107 nM. For `CC(C)C1N(CCO)C(=O)c2c(O)c(=O)ccn2N1C1c2ccccc2CCc2ccccc21` (stereo not drawn) [Example 553], the IC50 in test [1] is 28 nM. Consider `COCCN1C(=O)c2c(O)c(=O)c(C(=O)O)cn2N(C2c3ccccc3CCc3ccccc32)C1CCSC` (stereo not drawn) [Example 556], for which the EC50 in test [2] (setting [3]) came out at 412 nM.

Turning to `COCCN1C[C@H](C(c2ccccc2)c2ccccc2)n2cc(Cl)c(=O)c(O)c2C1=O` [Example 558], the EC50 in test [2] (setting [3]) was determined as 541 nM. For the molecule `N#Cc1ccccc1N1CC(C2c3ccccc3CCc3ccccc32)n2ccc(=O)c(O)c2C1=O` (stereo not drawn) [Example 568], in test [2] (setting [3]), the EC50 amounted to 2810 nM.

Broadly, the IC50 is the midpoint of a concentration-inhibition curve.

For the origin of these results see patent US9815835B2, “Substituted polycyclic carbamolypyridone derivative” (priority 2009, dated 2017).
